# How the values were obtained:
# Assay type in all cases: cell-based
# [1] = system: β-tubulin; assay: β-tubulin polymerization inhibition (β-tubulin assay kit) in MCF-7 cells
# Protocol: (§1) S4.2.1. Cytotoxic activity evaluation
# (§2) To measure the cytotoxic actvity of the synthesized acrylamide-PABA derivatives 4a-j in breast MCF-7 (ATCC Cat. No. HTB-22), liver HepG2 (ATCC Cat No. HB-8065), and normal breast MCF-10A (ATCC Cat. No. CRL 10317) cell lines, cell viability assay was assessed using MTT assay method. Cells at density of 1 x 104 were seeded in a 96-well plate at 37 °C for 24 h under 5% CO2. After incubation, the cells were treated with different concentrations of the test acrylamide-PABA hybrids 4a-j and incubated for 24 h, then 20 µl of MTT solution at 5 mg/mL was applied and incubated for 4 h at 37 °C. Dimethyl sulphoxide (DMSO) in volume of 100 µl was added to each well to dissolve the purple formazan that had formed. The color intensity of the formazan product, which represents the growth condition of the cells, is quantified by using an ELISA plate reader (EXL 800, USA) at 570 nm absorbance. The experimental conditions were carried out with at least three replicates, and the experiments were repeated at least three times.
# S4.2.2. β-tubulin inhibition Assay […]
# according to manufacturer’s instructions
# [2] = system: HepG2 hepatocellular carcinoma cell line; assay: MTT cytotoxicity assay, HepG2 hepatocellular carcinoma cell line; conditions: Homo sapiens, HepG2 cells, triplicate
# Protocol: as §1
# as §2, with “times. […]” for “times.”
# [3] = system: MCF-10A (normal breast) cell line; assay: MTT cytotoxicity assay, MCF-10A normal breast cell line; conditions: Homo sapiens, MCF-10A normal breast cells, triplicate
# Protocol: as §1
# as §2, with “times. […]” for “times.”
# [4] = system: MCF-7 breast cancer cell line; assay: MTT cytotoxicity assay, MCF-7 breast cancer cell line; conditions: for IC50: MCF-7 breast carcinoma cells, triplicate
# Protocol: The MTT colorimetric technique was used to evaluate the cytotoxic activity of the newly produced acrylamide–PABA hybrids 4a–j against the MCF-7 breast cancer cell line.
# as §1
# as §2, with “times. […]” for “times.”
# [5] = system: p53; assay: qRT-PCR expression level of p53; conditions: MCF-7 cells
# Excerpt: (§3) The apoptotic markers related to apoptosis were crucial in preventing cancer.[30] p53 and other apoptotic regulators function as transcription factors that can activate several target genes in response to oncogenic stress, causing cell cycle arrest, apoptosis activation, and degeneration, while also promoting DNA repairs.[31] As a result, the apoptosis-related markers work together in order to ensure that cells with mutations that promote cancer (including broken genomes) are either repaired or permanently eliminated.[32] To further comprehend the molecular process involved in the apoptotic efficacy of the acrylamide–PABA analogs, the expression levels of p53, Bax, Bcl-2 and caspase 9 were evaluated. […] This was carried out in contrast to a negative control group. […] This was accompanied by a notable drop in the level of Bcl-2 (0.29-fold). […]
# (§4) S4.2.4. qRT-PCR measurements of p53, Bax, Bcl2 and caspase 9 for compound […]
# (§5) Real-time PCR for p53, BAX, Bcl-2 and caspase 9 genes expression was done using commercial Qiagen RNA extraction/ BioRad SYBER green PCR master mix according manufacturer's instructions. […]
# (§6) Relative quantification of target genes was run on Rotor-Gene 6000 Series Software
# [6] = system: MCF-7 cells; assay: Cell cycle analysis (PI, flow cytometry); conditions: 4j at the IC50, 48 h
# Excerpt: In cancer mass development, the disruption of the cell cycle can be an important event. Cellular cycle progression has two primary checkpoints: G1/S before DNA replication and G2/M before mitosis.[33] A p53-responsive gene such as p21^wafi regulates the G1/S checkpoint and mediates cell cycle arrest.[34] Since the cytotoxic activity of the synthesized analogs against MCF-7 cells was induced by the enhanced apoptotic levels, we examined whether these analogs further induced cell cycle arrest. […] As can been seen in Fig. 5, the cellular distribution at each stage is depicted in the histogram of the cellular cycle caused by the acrylamide–PABA hybrid 4j. […]
# instrument (Thermo Scientific, USA). The cycling parameters for the PCR amplification were achieved by initial denaturation at 95 °C for 3 minutes followed by 40 cycles of 94 °C for 15 seconds and annealing/extension step at 60 °C for 1 min.
# Relative quantification of target genes was run on Rotor-Gene 6000 Series Software […]
# Table 1: The primer sequences for Real Time PCR assay
# S4.2.5. Cell cycle analysis of compound 4j
# Cell cycle analysis in MCF-7 cells was investigated using fluorescent Annexin V-FITC/ PI detection kit (BioVision EZCellTM Cell Cycle Analysis Kit Catalog #K920) by flow cytometry assay. MCF-7 cells at a density of 2 × 10^5 per well were harvested and washed twice in PBS. After that, the cells were incubated at 37 °C and 5% CO2.
# The medium was incubated with the tested compound 4j at the IC50 (µM) for 48 h, washed twice in PBS, fixed with 70% ethanol, rinsed again with PBS. Afterward, medium was stained with DNA fluorochrome PI for 15 min at 37 °C. The samples were immediately analyzed using Facs Calibur flow cytometer (Becton and Dickinson, Heidelberg, Germany).
# S4.3. Molecular modeling study
# Molecular docking simulations were conducted using AutoDock Vina to investigate ligand interactions with the tubulin complex. The three-dimensional (3D) structure of the tubulin heterodimer was obtained from the Protein Data Bank (PDB ID: 1SA0), with chain B of the colchicine-bound complex selected as the docking target. […]
# [7] = system: MCF-7 cells; assay: Annexin V-FITC/PI apoptosis assay by flow cytometry; conditions: 4j at the IC50, 48 h
# Protocol: Understanding the biological mechanism of action of chemotherapeutic agents is an important aspect of the pharmaceutical development process.[28] […] Following cellular staining with Annexin V –FITC/propidium iodide (PI), FACS analysis was conducted. To differentiate between early and late apoptosis, both stains were used. (PI^−/Annexin V-FITC^+) represented early apoptotic cells, (PI^+/Annexin V-FITC^+) indicated late apoptotic cells, and (PI^+/Annexin V-FITC^−) represented necrotic cells. However, healthy cells were not stained (PI^−/Annexin V-FITC^−). […] This was clarified by compound 4j's modest degree of induced necrosis in contrast to its markedly elevated levels of induced early and late apoptosis. Acrylamide–PABA analog 4j induced both early apoptosis (22.07%) and late apoptosis (7.56%) in comparison with modest level of necrosis (3.19%).
# S4.2.3. Apoptosis assay for compound 4j
# Apoptosis in MCF-7 cells was investigated using fluorescent Annexin V-FITC/ PI detection kit (BioVision Annexin V-FITC Apoptosis Detection Kit, Catalog #: K101) by flow cytometry assay. MCF-7 cells at a density of 2 × 10^5 per well were treated with compound 4j at the IC50 (µM) for 48 h, then the cells were harvested and stained with Annexin V-FITC/ PI dye for 15 min in the dark at 37 °C. The samples were immediately analyzed using FACS Calibur flow cytometer (Becton and Dickinson, […]
# as §4
# Real-time PCR for p53, BAX, Bcl-2 and caspase 9 genes expression was done using commercial Qiagen RNA extraction/ BioRad SYBER green PCR master mix according manufacturer's instructions. Briefly, 2 µl of cDNA template, 10 pMol of each forward and reverse primer, 10 µl of 2X Master Mix and to 20 µl total reaction mixture volume by nuclease free water and then was introduced to thermal cycler […]
# (1 picture or pasted object on this page, not shown here)
# [8] = system: caspase 9; assay: qRT-PCR expression level of caspase 9; conditions: MCF-7 cells
# Excerpt: as §3, §4, §5, §6
# [9] = system: Bcl-2; assay: qRT-PCR expression level of Bcl-2; conditions: MCF-7 cells
# Excerpt: as §3, §4, §5, §6
# [10] = system: Bax; assay: qRT-PCR expression level of Bax; conditions: MCF-7 cells
# Excerpt: as §3, §4, §5, §6
structure (smiles),measurement,setting,value
"COc1cc(C(=O)N/C(=C\c2ccc(F)cc2)C(=O)NNC(=O)c2ccc(N)cc2)cc(OC)c1OC [4a, (Z)-N-(3-(2-(4-Aminobenzoyl)hydrazineyl)-1-(4-fluorophenyl)-3-oxoprop-1-en-2-yl)-3,4,5-trimethoxybenzamide]",percentage inhibition of β-tubulin polymerization,[1],78.19%
same,IC50,[2],4.87 ± 0.13 µM
same,IC50,[3],19.8 ± 0.62 µM
same,IC50,"[4]; Homo sapiens, MCF7, MTT",2.99 ± 0.1 µM
"COc1cc(C(=O)N/C(=C\c2ccc(Cl)cc2)C(=O)NNC(=O)c2ccc(N)cc2)cc(OC)c1OC [4b, (Z)-N-(3-(2-(4-Aminobenzoyl)hydrazineyl)-1-(4-chlorophenyl)-3-oxoprop-1-en-2-yl)-3,4,5-trimethoxybenzamide]",IC50,"[4]; Homo sapiens, MCF7, MTT",25.3 ± 0.86 µM
"COc1cc(C(=O)N/C(=C\c2ccc([N+](=O)[O-])cc2)C(=O)NNC(=O)c2ccc(N)cc2)cc(OC)c1OC [4c, (Z)-N-(3-(2-(4-Aminobenzoyl)hydrazineyl)-1-(4-nitrophenyl)-3-oxoprop-1-en-2-yl)-3,4,5-trimethoxybenzamide]",IC50,"[4]; Homo sapiens, MCF7, MTT",> 30 µM
same,IC50,[4]; MTT,39.7 ± 1.34 µM
"COc1cc(C(=O)N/C(=C\c2ccc(N(C)C)cc2)C(=O)NNC(=O)c2ccc(N)cc2)cc(OC)c1OC [4f, (Z)-N-(3-(2-(4-Aminobenzoyl)hydrazineyl)-1-(4-(dimethylamino)phenyl)-3-oxoprop-1-en-2-yl)-3,4,5-trimethoxybenzamide]",IC50,"[4]; Homo sapiens, MCF7, MTT",27.2 ± 0.92 µM
"COc1ccc(/C=C(\NC(=O)c2cc(OC)c(OC)c(OC)c2)C(=O)NNC(=O)c2ccc(N)cc2)cc1OC [4g, (Z)-N-(3-(2-(4-Aminobenzoyl)hydrazineyl)-1-(3,4-dimethoxyphenyl)-3-oxoprop-1-en-2-yl)-3,4,5-trimethoxybenzamide]",IC50,"[4]; Homo sapiens, MCF7, MTT",17.1 ± 0.58 µM
"COc1cc(C(=O)N/C(=C\c2cc(Br)c(O)c(Br)c2)C(=O)NNC(=O)c2ccc(N)cc2)cc(OC)c1OC [4h, (Z)-N-(3-(2-(4-Aminobenzoyl)hydrazineyl)-1-(3,5-dibromo-4-hydroxyphenyl)3-oxoprop-1-en-2-yl)-3,4,5-trimethoxybenzamide]",IC50,"[4]; Homo sapiens, MCF7, MTT",19.9 ± 0.67 µM
"COc1cc(/C=C(\NC(=O)c2cc(OC)c(OC)c(OC)c2)C(=O)NNC(=O)c2ccc(N)cc2)cc(OC)c1OC [4i, (Z)-N-(3-(2-(4-Aminobenzoyl)hydrazineyl)-3-oxo-1-(3,4,5-trimethoxyphenyl)prop-1-en-2-yl)-3,4,5-trimethoxybenzamide]",IC50,"[4]; Homo sapiens, MCF7, MTT",4.51 ± 0.15 µM
"COc1cc(C(=O)N/C(=C\c2ccco2)C(=O)NNC(=O)c2ccc(N)cc2)cc(OC)c1OC [4j, (Z)-N-(3-(2-(4-Aminobenzoyl)hydrazineyl)-1-(furan-2-yl)-3-oxoprop-1-en-2-yl)-3,4,5-trimethoxybenzamide]",expression level of p53 compared to negative controls,[5],5.14 fold
same,cell population at S phase,[6]; negative control 29.51%,18.83%
same,cell population at G1 phase,[6]; negative control 61.08%,46.99%
same,cell population at G2/M phase,[6]; untreated control 9.41%,34.18%
same,early apoptosis,[7],22.07%
same,late apoptosis,[7],7.56%
same,necrosis,[7],3.19%
same,percentage inhibition of β-tubulin polymerization,[1],81.51%
same,expression level of caspase 9 compared to negative controls,[8],9.89 fold
same,level of Bcl-2 compared to negative controls,[9],0.29 fold
same,IC50,[2],2.14 ± 0.09 µM
same,IC50,[3],23.2 ± 1.06 µM
same,IC50,"[4]; Homo sapiens, MCF7, MTT",1.83 ± 0.06 µM
same,fold more potent than the reference drug Col (MCF-7 IC50),"[4]; MCF-7 cells, relative to Col",1.9 fold
same,expression level of Bax compared to negative controls,[10],8.36 fold
